Molecular target: T1, mutant G12C K-RAS (Homo sapiens, UniProt P01116, G12C)
T1 construct: made in house; host or cells: E. coli BL21
Assay: covalent adduct formation (CAF) with mutant G12C K-RAS
Type: binding
Set-up: covalent adduct formation (CAF): unit not given here
Settings: Table 1; 10 micromolar, after 60 minutes
Procedure: Embodiments disclosed herein are further illustrated by the following examples in Tables 1-4 and the Examples hereinbelow. The Tables indicate the compound number, structure, the observed mass spectral molecular weight peak, and covalent adduct formation (CAF) with a mutant G12C K-RAS after 60 minutes at a concentration of 10 micromolar.

Row | SMILES | % CAF(60 min) [%]
1 | C=CC(=O)N1CCN(c2nc(=O)n3c4c(c(-c5c(O)cccc5F)c(Cl)cc24)OCC3)CC1 [Example 1, 7-(4-acryloylpiperazin-1-yl)-9-chloro-10-(2-fluoro-6-hydroxyphenyl)-2H-[1,4]oxazino[2,3,4-ij]quinazolin-5(3H)-one] | 89
2 | C=CC(=O)N1CC2(CCN(c3nc(=O)n4c5c(c(-c6c(O)cccc6F)c(Cl)cc35)OCC4)CC2)C1 [Example 2, 7-(2-acryloyl-2,7-diazaspiro[3.5]nonan-7-yl)-9-chloro-10-(2-fluoro-6-hydroxyphenyl)-2H-[1,4]oxazino[2,3,4-ij]quinazolin-5(3H)-one] | 42.5
3 | C=CC(=O)N1CCN(c2nc(=O)n3c4c(c(-c5c(C)ccc6[nH]ncc56)c(Cl)cc24)OCC3)CC1 [Example 3, 7-(4-acryloylpiperazin-1-yl)-9-chloro-10-(5-methyl-1H-indazol-4-yl)-2H-[1,4]oxazino[2,3,4-ij]quinazolin-5(3H)-one] | 67.4

Same assay, conditions: Table 2; 10 micromolar, after 60 minutes

Row | SMILES | % CAF(60 min) [%]
4 | C=CC(=O)N1CCN(c2nc(=O)n3c4c(c(-c5c(O)cccc5F)c(Cl)cc24)OC[C@H]3CO)[C@@H](C)C1 [Example 23, (3R,10R)-7-((S)-4-acryloyl-2-methylpiperazin-1-yl)-9-chloro-10-(2-fluoro-6-hydroxyphenyl)-3-(hydroxymethyl)-2H-[1,4]oxazino[2,3,4-ij]quinazolin-5(3H)-one] | 0

Same assay, conditions: Table 4; 10 micromolar, after 60 minutes

Row | SMILES | % CAF(60 min) [%]
5 | C=CC(=O)N1C[C@H](C)N(c2c(C#N)c(=O)n3c4c(c(-c5ccc(F)cc5F)ccc24)OC[C@@H]3CN(C)C)C[C@H]1C [Example 51, (S)-7-((2S,5R)-4-acryloyl-2,5-dimethylpiperazin-1-yl)-10-(2,4-difluorophenyl)-3-((dimethylamino)methyl)-5-oxo-3,5-dihydro-2H-[1,4]oxazino[2,3,4-ij]quinoline-6-carbonitrile] | 0
6 | C=CC(=O)N1C[C@H](C)N(c2c(C#N)c(=O)n3c4c(c(-c5ccc(F)cc5F)ccc24)OC[C@H]3CN(C)C)C[C@H]1C [Example 52, (R)-7-((2S,5R)-4-acryloyl-2,5-dimethylpiperazin-1-yl)-10-(2,4-difluorophenyl)-3-((dimethylamino)methyl)-5-oxo-3,5-dihydro-2H-[1,4]oxazino[2,3,4-ij]quinoline-6-carbonitrile] | 0

Same assay, conditions: Table 6; 10 uM, 1 h

Row | SMILES | % CAF @ 10 uM, 1 h [%]
7 | C=CC(=O)N1C[C@H](C)N(c2nc(=O)n3c4c(c(-c5c(O)cccc5F)c(Cl)cc24)OC[C@@H]3CN2CCOCC2)C[C@H]1C (atropisomer, axis not shown) [Example 208, (3R,10R)-7-((2S,5R)-4-acryloyl-2,5-dimethyl-piperazin-1-yl)-9-chloro-10-(2-fluoro-6-hydroxyphenyl)-3-(morpholinomethyl)-2,3-dihydro-5H-[1,4]-oxazino[2,3,4-ij]-quinazolin-5-one] | 0
8 | C=CC(=O)N1C[C@H](C)N(c2nc(=O)n3c4c(c(-c5c(O)cccc5F)c(Cl)cc24)OC[C@H]3CN2CCOCC2)C[C@H]1C (atropisomer, axis not shown) [Example 210, (3R,10R)-7-((2S,5R)-4-acryloyl-2,5-dimethyl-piperazin-1-yl)-9-chloro-10-(2-fluoro-6-hydroxyphenyl)-3-(morpholinomethyl)-2,3-dihydro-5H-[1,4]-oxazino-[2,3,4-ij]-quinazolin-5-one] | 0
9 | C=CC(=O)N1CCN(c2nc(=O)n3c4c(c(-c5c(O)cccc5F)c(Cl)cc24)OC[C@H]3CN2CCC(F)(F)C2)[C@@H](C)C1 (atropisomer, axis not shown) [Example 227, (3R,10R)-7-((S)-4-acryloyl-2-methyl-piperazin-1-yl)-9-chloro-3-((3,3-difluoropyrrolidin-1-yl)methyl)-10-(2-fluoro-6-hydroxyphenyl)-2,3-dihydro-5H-[1,4]-oxazino-[2,3,4-ij]-quinazolin-5-one] | 0
10 | C=CC(=O)N1C[C@H](C)N(c2nc(=O)n3c4c(c(-c5c(O)cccc5F)c(Cl)cc24)OC[C@@H]3CN(C)CC(F)(F)F)C[C@H]1C (atropisomer, axis not shown) [Example 239, (3S,10R)-7-((2S,5R)-4-acryloyl-2,5-dimethylpiperazin-1-yl)-9-chloro-10-(2-fluoro-6-hydroxyphen-yl)-3-((methyl(2,2,2-trifluoroethyl)amino)-methyl)-2H-[1,4]-oxazino[2,3,4-ij]-quinazolin-5(3H)-one] | 3
11 | C=CC(=O)N1C[C@H](C)N(c2nc(=O)n3c4c(c(-c5c(O)cccc5F)c(Cl)cc24)OC[C@H]3CN(C)CC(F)(F)F)C[C@H]1C (atropisomer, axis not shown) [Example 241, (3R,10R)-7-((2S,5R)-4-acryloyl-2,5-dimethylpiperazin-1-yl)-9-chloro-10-(2-fluoro-6-hydroxyphen-yl)-3-((methyl(2,2,2-trifluoroethyl)amino)-methyl)-2H-[1,4]-oxazino[2,3,4-ij]-quinazolin-5(3H)-one] | 0
12 | C=CC(=O)N1C[C@H](C)N(c2nc(=O)n3c4c(c(-c5c(O)cccc5F)c(Cl)cc24)OC[C@H]3Cn2cccn2)C[C@H]1C (atropisomer, axis not shown) [Example 245, (3R,10R)-3-((1H-pyrazol-1-yl)methyl)-7-((2S,5R)-4-acryloyl-2,5-dimethylpiperazin-1-yl)-9-chloro-10-(2-fluoro-6-hydroxyphen-yl)-2H-[1,4]oxazino-[2,3,4-ij]quinazolin-5(3H)-one] | 0
13 | C=CC(=O)N1C[C@H](C)N(c2nc(=O)n3c4c(c(-c5c(O)cccc5F)c(Cl)cc24)OC[C@H]3CN2CCN(C)CC2)C[C@H]1C (atropisomer, axis not shown) [Example 300, (3R,10R)-7-((2S,5R)-4-acryloyl-2,5-dimethylpiperazin-1-yl)-9-chloro-10-(2-fluoro-6-hydroxyphen-yl)-3-((4-methylpiper-azin-1-yl)methyl)-2,3-dihydro-5H-[1,4]-oxazino[2,3,4-ij]-quinazolin-5-one] | 0
14 | C=CC(=O)N1C[C@H](C)N(c2nc(=O)n3c4c(c(-c5c(O)cccc5F)c(Cl)cc24)OC[C@@H]3CN2CCN(C)CC2)C[C@H]1C (atropisomer, axis not shown) [Example 305, (3S,10R)-7-((2S,5R)-4-acryloyl-2,5-dimethylpiperazin-1-yl)-9-chloro-10-(2-fluoro-6-hydroxyphen-yl)-3-((4-methylpiper-azin-1-yl)methyl)-2,3-dihydro-5H-[1,4]-oxazino[2,3,4-ij]-quinazolin-5-one] | 0
15 | C=CC(=O)N1C[C@H](C)N(c2nc(=O)n3c4c(c(-c5c(C)ccc6[nH]ncc56)c(Cl)cc24)OC[C@H]3Cn2cccn2)C[C@H]1C (atropisomer, axis not shown) [Example 319, (3R,10S)-3-((1H-pyrazol-1-yl)methyl)-7-((2S,5R)-4-acryloyl-2,5-dimethylpiperazin-1-yl)-9-chloro-10-(5-methyl-1H-indazol-4-yl)-2,3-dihydro-5H-[1,4]oxazino[2,3,4-ij]-quinazolin-5-one] | 0
16 | C=CC(=O)N1CCN(c2nc(=O)n3c4c(c(-c5c(O)cccc5F)c(Cl)cc24)OC[C@@H]3CN2CCOCC2)[C@@H](C)C1 [Example 195, (3S,10R)-7-((S)-4-acryloyl-2-methylpiperazin-1-yl)-9-chloro-10-(2-fluoro-6-hydroxyphenyl)-3-(morpholinomethyl)-2,3-dihydro-5H-[1,4]oxazino[2,3,4-ij]quinazolin-5-one] | 0
17 | C=CC(=O)N1C[C@H](C)N(c2nc(=O)n3c4c(c(-c5ccccc5C(F)(F)F)c(Cl)cc24)OCC3)C[C@H]1C [Example 197, 7-((2S,5R)-4-acryloyl-2,5-dimethylpiperazin-1-yl)-9-chloro-10-(2-(trifluoromethyl)phenyl)-2,3-dihydro-5H-[1,4]oxazino[2,3,4-ij]quinazolin-5-one] | 0
18 | C=CC(=O)N1CCN(c2nc(=O)n3c4c(c(-c5c(O)cccc5F)c(Cl)cc24)OC[C@H]3CN2CCOCC2)[C@@H](C)C1 [Example 198, (3R,10S)-7-((S)-4-acryloyl-2-methvlpiperazin-1-yl)-9-chloro-10-(2-fluoro-6-hydroxyphenyl)-3-(morpholinomethyl)-2,3-dihydro-5H-[1,4]oxazino[2,3,4-ij]quinazolin-5-one] | 100

Same assay, conditions: Table 7; 10 micromolar, after 60 minutes

Row | SMILES | covalent adduct formation (CAF)
19 | C=CC(=O)N1CCN(c2nc(=O)n3c4c(c(-c5ccc(F)cc5F)c(Cl)cc24)SC(C)(C)C3)[C@@H](C)C1 [Example 76, 7-((S)-4-acryloyl-2-methylpiperazin-1-yl)-9-chloro-10-(2,4-difluorophenyl)-2,2-dimethyl-2,3-dihydro-5H-[1,4]thiazino[2,3,4-ij]quinazolin-5-one] | 86.8
20 | C=CC(=O)N1CCN(c2nc(=O)n3c4c(c(-c5ccc(F)cc5F)c(Cl)cc24)SC[C@H]3C)[C@@H](C)C1 [Example 99, (3R)-7-((S)-4-acryloyl-2-methylpiperazin-1-yl)-9-chloro-10-(2,4-difluorophenyl)-3-methyl-2H-[1,4]thiazino[2,3,4-ij]quinazolin-5(3H)-one] | 87.2
21 | C=CC(=O)N1CCN(c2nc(=O)n3c4c(c(-c5ccc(F)cc5F)c(Cl)cc24)SC[C@H]3COC)[C@@H](C)C1 [Example 130, (3R)-7-((S)-4-acryloyl-2-methylpiperazin-1-yl)-9-chloro-10-(2,4-difluorophenyl)-3-(methoxymethyl)-2,3-dihydro-5H-[1,4]thiazino[2,3,4-ij]quinazolin-5-one] | 94.5
22 | C=CC(=O)N1CCN(c2nc(=O)n3c4c(c(-c5c(F)cc(F)cc5F)c(Cl)cc24)SC[C@H]3COC)[C@@H](C)C1 [Example 137, (R)-7-((S)-4-acryloyl-2-methylpiperazin-1-yl)-9-chloro-3-(methoxymethyl)-10-(2,4,6-trifluorophenyl)-2,3-dihydro-5H-[1,4]thiazino[2,3,4-ij]quinazolin-5-one] | 86.8
